System: polymerase, e.g., E. coli Pol I
Conditions: DNA template A20-C3-A30-G (SEQ ID NO: 3), FIG. 9; T signals are increased current; interpretation of the data
Text: In this example, 7-deaza-dGTP (see FIG. 14B) was used as a modified dGTP. The signals were obtained for the DNA template {GTCA}10-[sequence] (SEQ ID NO: 2), comprising the 7-deaza modified dGTP.
In this embodiment, the signal data are obtained for the DNA template {GTCA}10-[sequence] (SEQ ID NO: 2), when a modified dGTP is used (7-deaza dGTP of FIG. 14B).

Structure (SMILES): Nc1nc2c(ccn2[C@H]2C[C@H](O)[C@@H](COP(=O)(O)OP(=O)(O)OP(=O)(O)O)O2)c(=O)[nH]1 [7-deaza dGTP, 7-deaza-2′-deoxyguanosine-5′-triphosphate]
- modified dGTP incorporation signal (current): reduction in current
